This note sets out measurements from ChEMBL document CHEMBL1147436, “Synthesis of N,N'-disubstituted 3-aminobenzo[c] and [d]azepin-2-ones as potent and specific farnesyl transferase inhibitors” (Bioorg Med Chem Lett, 2004).

System in the first assay: not listed separately
Put plainly: Inhibitory activity against v-H-Ras gene transfected cell line. The format is functional.
Details: not given
For orientation: IC50 means the concentration needed to halve the response being measured. The low end stands for greater potency, the high end for weaker potency. As for `N#Cc1ccc(Cn2cncc2CNC2C(=O)N(Cc3cccc(Cl)c3)CCc3ccccc32)cc1` (centres undefined), the IC50 is 183 nM.

Take `N#Cc1ccc(Cn2cncc2CNC2C(=O)N(Cc3cccc(F)c3)CCc3ccccc32)cc1` (centres undefined): half-maximal inhibition (IC50) was put at 67 nM.

On to `N#Cc1ccc(Cn2cncc2CNC2Cc3ccccc3CN(Cc3cc(F)cc(F)c3F)C2=O)cc1` (centres undefined), for which the half-maximal inhibitory concentration (IC50) amounted to 47 nM.

`N#Cc1ccc(Cn2cncc2CNC2C(=O)N(c3cc(Cl)cc(Cl)c3)CCc3ccccc32)cc1` (centres undefined) returned an IC50 of 19 nM.

`N#Cc1ccc(Cn2cncc2CNC2C(=O)N(Cc3cc(F)cc(F)c3)CCc3ccccc32)cc1` (centres undefined) showed an IC50 of 379 nM.

The molecule `N#Cc1ccc(Cn2cncc2CNC2Cc3ccccc3CN(c3cc(Cl)cc(Cl)c3)C2=O)cc1` (centres undefined) displayed an IC50 of 7 nM.

Take `N#Cc1ccc(Cn2cncc2CN[C@H]2Cc3ccccc3CN(c3ccccc3)C2=O)cc1`: inhibition was half-maximal at 16 nM (IC50).

As to `N#Cc1ccc(Cn2cncc2CN[C@H]2CCCCN(Cc3ccccc3)C2=O)cc1`, 10 nM corresponded to half-maximal inhibition (IC50).

Molecule `COc1cccc(N2Cc3ccccc3CC(NCc3cncn3Cc3ccc(C#N)cc3)C2=O)c1` (racemic) displayed an IC50 of 15 nM.

Molecule `N#Cc1ccc(Cn2cncc2CNC2Cc3ccccc3CN(Cc3cccc(Cl)c3)C2=O)cc1` (centres undefined) yielded an IC50 of 4 nM.

Turning to `N#Cc1ccc(Cn2cncc2CNC2Cc3ccccc3CN(Cc3ccc(Cl)cc3Cl)C2=O)cc1` (centres undefined), the 50% inhibitory concentration (IC50) worked out at 141 nM. Against the preceding molecule, the IC50 is about 35-fold higher.

Turning to `N#Cc1ccc(Cn2cncc2CNC2Cc3ccccc3CN(Cc3cc(F)cc(F)c3)C2=O)cc1` (centres undefined), the IC50 came out at 16 nM. Compared with the last molecule, the IC50 is about 8.8-fold lower.

`Cc1ccccc1CN1Cc2ccccc2CC(NCc2cncn2Cc2ccc(C#N)cc2)C1=O` (centres undefined) came in with an IC50 of 4 nM.

As to `N#Cc1ccc(Cn2cncc2CNC2Cc3ccccc3CN(c3cc(F)cc(F)c3)C2=O)cc1` (centres undefined), half-maximal inhibition (IC50) was put at 40 nM.

On to `N#Cc1ccc(Cn2cncc2CNC2Cc3ccccc3CN(c3cccc(F)c3)C2=O)cc1` (racemic), for which the IC50 was determined as 39 nM.

In the case of `N#Cc1ccc(Cn2cncc2CNC2Cc3ccccc3CN(c3cccc(Cl)c3)C2=O)cc1` (racemic), it took 16 nM to reach half-maximal inhibition (IC50).

`Cc1ccccc1CN1CCc2ccccc2C(NCc2cncn2Cc2ccc(C#N)cc2)C1=O` (centres undefined) came in with an IC50 of 96 nM.

Take `N#Cc1ccc(Cn2cncc2CNC2C(=O)N(c3ccccc3)CCc3ccccc32)cc1` (centres undefined): the IC50 was 95 nM.

Take `N#Cc1ccc(Cn2cncc2CNC2Cc3ccccc3CN(CC3CCCCC3)C2=O)cc1` (centres undefined): the IC50 stood at 26 nM.

For `N#Cc1ccc(Cn2cncc2CNC2Cc3ccccc3CN(c3ccccc3)C2=O)cc1` (racemic), the IC50 worked out at 36 nM.

`N#Cc1ccc(Cn2cncc2CNC2C(=O)N(c3cc(F)cc(F)c3)CCc3ccccc32)cc1` (centres undefined): the IC50 is 86 nM. This IC50 is about 2.4-fold higher than that of the molecule before.

Molecule `N#Cc1ccc(Cn2cncc2CNC2C(=O)N(Cc3cccc(Br)c3)CCc3ccccc32)cc1` (centres undefined) returned a half-inhibitory concentration (IC50) of 60 nM.

On to `N#Cc1ccc(Cn2cncc2CNC2Cc3ccccc3CN(Cc3ccccc3)C2=O)cc1` (centres undefined), for which 6 nM corresponded to half-maximal inhibition (IC50).

As to `N#Cc1ccc(Cn2cncc2CN[C@H]2Cc3ccccc3CN(c3cccc(Cl)c3)C2=O)cc1`, the IC50 turned out to be 7 nM.

In turn, `N#Cc1ccc(Cn2cncc2CNC2C(=O)N(c3cccc(Cl)c3)CCc3ccccc32)cc1` (racemic) returned an IC50 of 39 nM.

On to `N#Cc1ccc(Cn2cncc2CNC2Cc3ccccc3CN(c3cccc([N+](=O)[O-])c3)C2=O)cc1` (racemic), for which the 50% inhibitory concentration (IC50) worked out at 46 nM.

For `N#Cc1ccc(Cn2cncc2CNC2Cc3ccccc3CN(c3cccc(Br)c3)C2=O)cc1` (racemic), the IC50 worked out at 5 nM. Compared with the last molecule, the IC50 is about 9.2-fold lower.

Molecule `N#Cc1ccc(Cn2cncc2CNC2Cc3ccccc3CN(Cc3ccccc3Cl)C2=O)cc1` (centres undefined) displayed an IC50 of 6 nM.

`N#Cc1ccc(Cn2cncc2CNC2Cc3ccccc3CN(Cc3ccc(F)cc3F)C2=O)cc1` (centres undefined) had a concentration for half-maximal inhibition (IC50) of 115 nM.

The molecule `N#Cc1ccc(Cn2cncc2CNC2C(=O)N(Cc3ccccc3Cl)CCc3ccccc32)cc1` (centres undefined) had an IC50 of 92 nM.

For a further assay, the system named is Mus musculus. Kind of assay: Percent control tumor size in mouse xenograft assay (rat H-ras transformed fibroblasts) at 200 mg/kg peroral dose. As to conditions: route oral. Type of assay: functional.
In turn, `Cc1ccccc1CN1Cc2ccccc2CC(NCc2cncn2Cc2ccc(C#N)cc2)C1=O` (centres undefined) showed a Control of 57%.

For the molecule `N#Cc1ccc(Cn2cncc2CN[C@H]2Cc3ccccc3CN(c3cccc(Cl)c3)C2=O)cc1`, the Control stood at 35%.

Molecule `N#Cc1ccc(Cn2cncc2CNC2C(=O)N(c3cccc(Cl)c3)CCc3ccccc32)cc1` (racemic) showed a Control of 43%.

The subject of another assay is Mus musculus. Put plainly: Percent control tumor size in mouse xenograft assay (rat H-ras transformed fibroblasts) at 100 mg/kg peroral dose. Type of assay: functional. As to conditions: route oral.
Molecule `Cc1ccccc1CN1Cc2ccccc2CC(NCc2cncn2Cc2ccc(C#N)cc2)C1=O` (centres undefined) returned a Control of 76%.

Molecule `N#Cc1ccc(Cn2cncc2CN[C@H]2Cc3ccccc3CN(c3cccc(Cl)c3)C2=O)cc1` yielded a Control of 60%.

In the case of `N#Cc1ccc(Cn2cncc2CNC2C(=O)N(c3cccc(Cl)c3)CCc3ccccc32)cc1` (racemic), the Control stood at 70%.

A further assay addresses T1, Protein farnesyltransferase (Homo sapiens, UniProt P49354+P49356). Put plainly: Inhibition of Farnesyltransferase. Type of assay: protein-complex assay.
Details: not given
Molecule `N#Cc1ccc(Cn2cncc2CNC2C(=O)N(c3cc(Cl)cc(Cl)c3)CCc3ccccc32)cc1` (centres undefined) had an IC50 of 32 nM.

Target in another assay: not listed separately
Kind of assay: Inhibition of geranylgeranyl transferase.
Details: not given
Molecule `Cc1ccccc1CN1Cc2ccccc2CC(NCc2cncn2Cc2ccc(C#N)cc2)C1=O` (centres undefined) gave a half-inhibitory concentration (IC50) of 7100 nM.

`N#Cc1ccc(Cn2cncc2CN[C@H]2Cc3ccccc3CN(c3cccc(Cl)c3)C2=O)cc1` returned an IC50 of 25000 nM.

For `N#Cc1ccc(Cn2cncc2CNC2C(=O)N(c3cccc(Cl)c3)CCc3ccccc32)cc1` (racemic), the half-inhibitory concentration (IC50) came out at 7700 nM. Compared with the last molecule, the IC50 is about 3.2-fold lower.

Another assay deals with T1, Protein farnesyltransferase. Kind of assay: Inhibition of farnesyltransferase. Type of assay: protein-complex assay.
Details: not given
In the case of `N#Cc1ccc(Cn2cncc2CNC2C(=O)N(Cc3cccc(Cl)c3)CCc3ccccc32)cc1` (centres undefined), half-maximal inhibition (IC50) was put at 23 nM.

In turn, `N#Cc1ccc(Cn2cncc2CNC2C(=O)N(Cc3cccc(F)c3)CCc3ccccc32)cc1` (centres undefined) yielded a concentration for half-maximal inhibition (IC50) of 78 nM.

`N#Cc1ccc(Cn2cncc2CNC2Cc3ccccc3CN(Cc3cc(F)cc(F)c3F)C2=O)cc1` (centres undefined): the midpoint of inhibition, the IC50, lay at 18 nM.

The molecule `N#Cc1ccc(Cn2cncc2CNC2C(=O)N(Cc3cc(F)cc(F)c3)CCc3ccccc32)cc1` (centres undefined) showed a concentration for half-maximal inhibition (IC50) of 26 nM.

On to `N#Cc1ccc(Cn2cncc2CNC2Cc3ccccc3CN(c3cc(Cl)cc(Cl)c3)C2=O)cc1` (centres undefined), for which 15 nM corresponded to half-maximal inhibition (IC50).

On to `N#Cc1ccc(Cn2cncc2CN[C@H]2Cc3ccccc3CN(c3ccccc3)C2=O)cc1`, for which the half-maximal inhibitory concentration (IC50) is 19 nM. The IC50 values of the last two molecules are within 1.5-fold of each other.

Regarding `N#Cc1ccc(Cn2cncc2CN[C@H]2CCCCN(Cc3ccccc3)C2=O)cc1`, half-maximal inhibition (IC50) was put at 8 nM. This IC50 is about 2.4-fold lower than that of the molecule before.

On to `COc1cccc(N2Cc3ccccc3CC(NCc3cncn3Cc3ccc(C#N)cc3)C2=O)c1` (racemic), for which the half-maximal inhibitory concentration (IC50) was found to be 6 nM.

For `N#Cc1ccc(Cn2cncc2CNC2Cc3ccccc3CN(Cc3cccc(Cl)c3)C2=O)cc1` (centres undefined), the IC50 was found to be 6 nM.

Take `N#Cc1ccc(Cn2cncc2CNC2Cc3ccccc3CN(Cc3ccc(Cl)cc3Cl)C2=O)cc1` (centres undefined): the IC50 was 142 nM.

`N#Cc1ccc(Cn2cncc2CNC2Cc3ccccc3CN(Cc3cc(F)cc(F)c3)C2=O)cc1` (centres undefined) yielded a half-inhibitory concentration (IC50) of 8 nM.

The molecule `Cc1ccccc1CN1Cc2ccccc2CC(NCc2cncn2Cc2ccc(C#N)cc2)C1=O` (centres undefined) yielded a 50% inhibitory concentration (IC50) of 3 nM.

Molecule `N#Cc1ccc(Cn2cncc2CNC2Cc3ccccc3CN(c3cc(F)cc(F)c3)C2=O)cc1` (centres undefined) registered an IC50 of 10 nM.

As to `N#Cc1ccc(Cn2cncc2CNC2Cc3ccccc3CN(c3cccc(F)c3)C2=O)cc1` (racemic), the IC50 worked out at 9 nM. The IC50 values of the last two molecules are within 1.5-fold of each other.

The molecule `N#Cc1ccc(Cn2cncc2CNC2Cc3ccccc3CN(c3cccc(Cl)c3)C2=O)cc1` (racemic) showed a 50% inhibitory concentration (IC50) of 4 nM.

Consider `Cc1ccccc1CN1CCc2ccccc2C(NCc2cncn2Cc2ccc(C#N)cc2)C1=O` (centres undefined), for which the midpoint of inhibition, the IC50, lay at 54 nM.

Turning to `N#Cc1ccc(Cn2cncc2CNC2C(=O)N(c3ccccc3)CCc3ccccc32)cc1` (centres undefined), the IC50 came to 54 nM. In other words, the double-digit nanomolar range.

Molecule `N#Cc1ccc(Cn2cncc2CNC2Cc3ccccc3CN(CC3CCCCC3)C2=O)cc1` (centres undefined) displayed an IC50 of 47 nM.

With `N#Cc1ccc(Cn2cncc2CNC2Cc3ccccc3CN(c3ccccc3)C2=O)cc1` (racemic), half-maximal inhibition (IC50) required 26 nM.

The molecule `N#Cc1ccc(Cn2cncc2CNC2C(=O)N(c3cc(F)cc(F)c3)CCc3ccccc32)cc1` (centres undefined) registered an IC50 of 62 nM.

In turn, `N#Cc1ccc(Cn2cncc2CNC2C(=O)N(Cc3cccc(Br)c3)CCc3ccccc32)cc1` (centres undefined) came in with a half-inhibitory concentration (IC50) of 22 nM. Compared with the last molecule, the IC50 is about 2.8-fold lower.

`N#Cc1ccc(Cn2cncc2CNC2Cc3ccccc3CN(Cc3ccccc3)C2=O)cc1` (centres undefined) came in with an IC50 of 17 nM.

The molecule `N#Cc1ccc(Cn2cncc2CN[C@H]2Cc3ccccc3CN(c3cccc(Cl)c3)C2=O)cc1` yielded a 50% inhibitory concentration (IC50) of 1 nM.

`N#Cc1ccc(Cn2cncc2CNC2C(=O)N(c3cccc(Cl)c3)CCc3ccccc32)cc1` (racemic) registered an IC50 of 19 nM.

Take `N#Cc1ccc(Cn2cncc2CNC2Cc3ccccc3CN(c3cccc([N+](=O)[O-])c3)C2=O)cc1` (racemic): the midpoint of inhibition, the IC50, lay at 13 nM.

For the molecule `N#Cc1ccc(Cn2cncc2CNC2Cc3ccccc3CN(c3cccc(Br)c3)C2=O)cc1` (racemic), the concentration for half-maximal inhibition (IC50) was found to be 15 nM.

With `N#Cc1ccc(Cn2cncc2CNC2Cc3ccccc3CN(Cc3ccccc3Cl)C2=O)cc1` (centres undefined), the 50% inhibitory concentration (IC50) is 10 nM.

Regarding `N#Cc1ccc(Cn2cncc2CNC2Cc3ccccc3CN(Cc3ccc(F)cc3F)C2=O)cc1` (centres undefined), the IC50 turned out to be 55 nM.

On to `N#Cc1ccc(Cn2cncc2CNC2C(=O)N(Cc3ccccc3Cl)CCc3ccccc32)cc1` (centres undefined), for which inhibition was half-maximal at 23 nM (IC50).
